Data as given in patent US20030180827A1, “Highly sensitive and continuous protein tyrosine phosphatase test using 6,8-difluoro-4-methylumbelliferyl phosphate” (Aventis Pharma Deutschland Gmbh., priority 2002, published 2003).

Assays:
Format in all cases: biochemical
[1] = target: T1, protein tyrosine phosphatase PTP1B (Homo sapiens, UniProt P18031); assay: DiFMUP test, inhibition of PTP1B; settings: DiFMUP substrate, 100 ng PTP1B/ml, pH 6.9, 37° C.; read-out: inhibitor concentration that reduces the activity of the PTP1B by half (IC-50)
T1 sequence (P18031 1-435): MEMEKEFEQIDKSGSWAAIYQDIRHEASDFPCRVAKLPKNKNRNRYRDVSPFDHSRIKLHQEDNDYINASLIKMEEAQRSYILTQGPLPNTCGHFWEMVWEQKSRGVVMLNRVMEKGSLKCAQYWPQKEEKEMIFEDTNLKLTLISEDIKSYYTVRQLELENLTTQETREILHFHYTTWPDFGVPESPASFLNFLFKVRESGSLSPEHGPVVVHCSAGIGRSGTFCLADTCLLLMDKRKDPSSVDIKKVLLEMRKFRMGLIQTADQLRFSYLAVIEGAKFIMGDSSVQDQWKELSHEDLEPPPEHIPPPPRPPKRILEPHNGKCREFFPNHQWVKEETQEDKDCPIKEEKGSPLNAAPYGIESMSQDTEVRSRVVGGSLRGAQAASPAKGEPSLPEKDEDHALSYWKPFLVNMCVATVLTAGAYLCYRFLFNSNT
Protocol: (§1) The test for determining the inhibitory effect of the active compound 2,2-dioxo-2,3dihydro-2,6-benzo[1,2,3]oxathiazol-5-yl)-(9-ethyl-9H-carbazol-3-ylmethyl)amine using the DiFMUP test takes place in a black microtiter plate at a temperature of 37° C. 120 μl volumes of reaction buffer are provided, with the buffer containing the following components: 100 ng of protein tyrosine phosphatase PTP1B/ml; 50 mM Hepes, pH 6.9; 150 mM NaCl; 1 mM EDTA; 2 mM DTT. To this are added 15 μl of the inhibitor solution to be tested, at a variety of concentrations. The phosphatase reaction is started by adding 15 μl of 1 mM DiFMUP solution and the fluorescence (measured in RFU) is measured, at time intervals of 30 seconds and over a period of 15 minutes, in a fluorescence microtiter plate photometer at 358/455 nm. The measure of the enzyme activity is the increase in fluorescence, which can be depicted graphically (FIG. 1). The reduction in enzymic activity which is obtained depends on the concentration of inhibitor employed. The inhibitor concentration at which the active compound 2,2-dioxo-2,3-dihydro-2,6-benzo[1,2,3]oxathiazol-5-yl)-(9-ethyl-9H-carbazol-3-ylmethyl)amine reduces the activity of the PTP1B by half (IC-50) can be determined to be 3.8 μM. The IC-50 values using the pNPP test method and the malachite green phosphopeptide test were determined for comparison. […]

PTP1B [2] = target: T2, PTP1B (Homo sapiens, UniProt P18031); assay: pNPP test method; settings: for comparison
T2 sequence (P18031 1-435): T1 sequence (P18031 1-435)
Excerpt: The prior art discloses methods for measuring the activity of a protein tyrosine phosphatase using the substrate p-nitrophenyl phosphate (“p-NPP”). These methods are to be found in standard biochemical manuals such as Current Protocols in Protein Science: John E. Coligan (ed.), Ben M. Dunn (ed.), Hidde L. Ploegh (ed.), David W. Speicher (ed.), Paul T. Wingfield (ed.); SBN: 0-471-11184-8; loose-leaf pages, continuously updated; published by John Wiley & Sons. In these methods, the action of a phosphatase forms p-nitrophenol from the p-NPP. The p-nitrophenol thus produced can be measured photometrically on the basis of its intense yellow color in the alkaline range.
However, this test method has some unfavorable features. […] The increase in the pH leads to the color of the resulting p-nitrophenol changing to yellow, the absorption of which is determined photometrically and is a measure of the quantity of p-nitrophenol which is present. […]
The test for determining the inhibitory effect of the active compound 2,2-dioxo-2,3dihydro-2,6-benzo[1,2,3]oxathiazol-5-yl)-(9-ethyl-9H-carbazol-3-ylmethyl)amine using the DiFMUP test takes place in a black microtiter plate at a temperature of 37° C. […] The measure of the enzyme activity is the increase in fluorescence, which can be depicted graphically (FIG. 1). […]

PTP1B [3] = target: T2, PTP1B; assay: malachite green phosphopeptide test; settings: malachite green phosphopeptide test method, for comparison
Excerpt: The malachite green phosphopeptide test has been described as another method for measuring the activity of protein tyrosine phosphatases. Martin et al. (1985) Journal of Biological Chemistry, 260, pp. 14932 and Harder et al. (1994) Biochemical Journal, 298, pp. 395. In this method, the inorganic phosphate which the phosphatase has released from its substrate peptide is detected photometrically using the malachite green reagent. […]
as §1, with “120 μl volumes of reaction buffer are provided, with the buffer containing the following components: 100 ng of protein tyrosine phosphatase PTP1B/ml; 50 mM Hepes, pH 6.9; 150 mM NaCl; 1 mM EDTA; 2 mM DTT. To this are added 15 μl of the inhibitor solution to be tested, at a variety of concentrations.” left out, “The reduction in enzymic activity which is obtained depends on the concentration of inhibitor employed.” left out

[4] = target: T1, protein tyrosine phosphatase PTP1B; assay: Concentration dependence of the cleavage of DiFMUP by PTP1B (Lineweaver-Burk analysis); settings: DiFMUP as substrate 0-200 μM, 100 ng PTP1b/ml, pH 6.9, 37° C.
Protocol: The reaction takes place in a black microtiter plate at a temperature of 37° C. 135 μl of reaction buffer are provided in each case, with this buffer containing the following components: 100 ng of protein tyrosine phosphatase PTP1b/ml; 50 mM Hepes, pH 6.9; 150 mM NaCl; 1 mM EDTA; 2 mM DTT. The phosphatase reaction is started by adding 15 μl of DiFMUP solution, which contains the substrate at 10 times the final concentration which is desired in the test mixture (FIG. 2: 0-200 μM), and the fluorescence is measured, at time intervals of 30 seconds for a period of 15 minutes, in a fluorescence microtiter plate photometer at 358/455 nm. The measure of the enzyme activity is the increase in fluorescence (measured in RFU) in dependence on the DiFMUP concentration, which can be depicted graphically (FIG. 2). This graph can subsequently be used to determine the kinetic constants of the enzyme reaction by means of a Lineweaver-Burk analysis. […] This analysis can also be carried out in an analogous manner for other tyrosine phosphatases.

Row | IC50 [1] [µM] | IC50 (PTP1B [2]) [µM] | IC50 (PTP1B [3]) [µM] | Km [4] [µM] | Vmax [4] [RFU sec-1 mg-1] | SMILES
1 | 3.8 | 5.1 | 3.9 | – | – | CCn1c2ccccc2c2cc(CNc3ccc4c(c3)NS(=O)(=O)O4)ccc21 [2,2-dioxo-2,3-dihydro-2,6-benzo[1,2,3]oxathiazol-5-yl)-(9-ethyl-9H-carbazol-3-ylmethyl)amine]
2 | – | – | – | 19 | 388000 | Cc1cc(=O)oc2c(F)c(OP(=O)(O)O)c(F)cc12 [DiFMUP, 6,8-difluoro-4-methylumbelliferyl phosphate]
